Legend:
Type in all cases: cell-based
ΔF508-CFTR [1] = biological target: T1, ΔF508-CFTR (Homo sapiens, UniProt P13569, DEL508-508); assay: CFTR cell surface levels using HRP-tagged ΔF508-CFTR expressing CFBE cells, in the presence of a co-corrector; details: HRP-tagged ΔF508-CFTR CFBE cells, in the presence of 3 μM co-corrector; for EC50: read-out: EC50
T1 construct: host or cells: CFBE41o-, doxycycline-inducible
Procedure, shortened: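 Chemiluminescent read-out of surface HRP (15 min, dark) after PBS washes. Activity is normalized as 100×(sample−DMSO)/(3 μM co-corrector alone−DMSO).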

ΔF508-CFTR [2] = biological target: T1, ΔF508-CFTR; assay: CFTR cell surface levels using HRP-tagged ΔF508-CFTR expressing CFBE cells, intrinsic corrector capacity; set-up: % Activation: concentration or dose not given beside the values; details: HRP-tagged ΔF508-CFTR expressing CFBE41o- cells, compound alone (intrinsic corrector capacity), 20 hours at 33° C.; for EC50: read-out: EC50
Procedure, shortened: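 Surface ΔF508-CFTR was measured as HRP chemiluminescence from an extracellular-loop-4 tag, expressed as percent activity between DMSO and a […] corrector control.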

CFTR ΔF508 = biological target: T2, CFTR ΔF508 (Homo sapiens, UniProt P13569, DEL508-508); assay: Chronic TECC assay, primary bronchial epithelial cells of CF patients homozygous for CFTR ΔF508 (corrector, co-corrector and potentiator); details: chronic TECC, AUC = full area under the curve upon forskolin stimulation; for EC50: read-out: EC50 (nM) (AUC**); for % Activity at 1 μM (AUC**): test compound at 1 μM
T2 construct: bronchial epithelial cells isolated from CF patients homozygous for the CFTR ΔF508 mutation; McGill University; Asterand; University of North Carolina hAEC-CF; host or cells: primary human bronchial epithelial cells from CF patients homozygous for ΔF508, differentiated at air-liquid interface
Procedure, shortened: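 Primary bronchial epithelial cells from ΔF508-homozygous CF patients on collagen IV-coated Transwells were chronically treated with test compound plus corrector and potentiator, which were re-added before recording. Ieq was derived from PD and Rt in NaCl-Ringer, pH 7.4, at 37° C, with apical amiloride and bilateral forskolin, recorded every 2 min over 20 min. Ieq increase was normalized to controls, and EC50 was taken from per-well concentrations.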

T2 sequence (P13569 with tags, fused parts or gaps DEL508-508): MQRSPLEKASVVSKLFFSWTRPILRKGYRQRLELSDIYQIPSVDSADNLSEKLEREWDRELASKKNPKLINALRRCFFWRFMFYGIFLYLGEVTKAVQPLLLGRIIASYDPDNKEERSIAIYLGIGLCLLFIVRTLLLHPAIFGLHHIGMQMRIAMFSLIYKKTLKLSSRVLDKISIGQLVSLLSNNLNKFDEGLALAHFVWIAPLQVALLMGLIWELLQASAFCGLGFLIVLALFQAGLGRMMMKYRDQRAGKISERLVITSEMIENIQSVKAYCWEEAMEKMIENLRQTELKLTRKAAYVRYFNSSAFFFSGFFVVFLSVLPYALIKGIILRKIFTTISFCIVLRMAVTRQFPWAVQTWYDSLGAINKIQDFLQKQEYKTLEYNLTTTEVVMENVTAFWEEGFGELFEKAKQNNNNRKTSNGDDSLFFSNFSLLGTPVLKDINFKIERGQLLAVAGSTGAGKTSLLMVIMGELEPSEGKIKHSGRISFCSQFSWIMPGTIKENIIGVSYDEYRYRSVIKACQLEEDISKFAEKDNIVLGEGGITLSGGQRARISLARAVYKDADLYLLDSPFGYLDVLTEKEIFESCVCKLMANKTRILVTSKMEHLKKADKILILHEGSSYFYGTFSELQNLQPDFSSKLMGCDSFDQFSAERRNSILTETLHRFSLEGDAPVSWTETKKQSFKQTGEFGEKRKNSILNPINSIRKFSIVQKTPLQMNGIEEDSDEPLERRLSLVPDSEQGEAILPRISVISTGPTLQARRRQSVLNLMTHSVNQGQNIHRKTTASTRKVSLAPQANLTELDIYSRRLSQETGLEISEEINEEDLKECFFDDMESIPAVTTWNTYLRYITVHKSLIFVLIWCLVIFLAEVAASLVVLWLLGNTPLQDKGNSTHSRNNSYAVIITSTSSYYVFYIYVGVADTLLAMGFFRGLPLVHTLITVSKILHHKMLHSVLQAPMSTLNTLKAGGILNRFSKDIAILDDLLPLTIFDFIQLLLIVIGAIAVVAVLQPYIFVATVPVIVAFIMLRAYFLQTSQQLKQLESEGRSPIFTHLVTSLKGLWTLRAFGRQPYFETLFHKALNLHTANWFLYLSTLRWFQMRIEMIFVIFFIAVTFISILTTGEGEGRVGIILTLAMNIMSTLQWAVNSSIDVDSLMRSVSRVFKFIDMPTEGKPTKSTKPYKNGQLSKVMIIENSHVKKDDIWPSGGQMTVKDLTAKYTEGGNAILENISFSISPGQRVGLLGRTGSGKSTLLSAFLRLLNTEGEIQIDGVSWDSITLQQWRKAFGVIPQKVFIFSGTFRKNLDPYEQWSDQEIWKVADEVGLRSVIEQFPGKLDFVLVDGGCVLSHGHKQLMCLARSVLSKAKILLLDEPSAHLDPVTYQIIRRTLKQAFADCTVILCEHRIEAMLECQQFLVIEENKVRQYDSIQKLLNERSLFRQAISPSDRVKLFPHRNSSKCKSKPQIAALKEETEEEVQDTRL
T1 sequence (P13569 with tags, fused parts or gaps DEL508-508): as above

Row | Compound | % Activation (ΔF508-CFTR [1]) [%] | EC50 (ΔF508-CFTR [1]) [nM] | % Activation (ΔF508-CFTR [2]) [%] | EC50 (ΔF508-CFTR [2]) [nM] | EC50 (CFTR ΔF508) [nM] | % Activity at 1 μM (AUC**) (CFTR ΔF508) [%]
1 | COC1CCN(c2cc(C(=O)NS(C)(=O)=O)nc3c2c(C(C)C)nn3-c2ccnc(N3CCOCC3)c2)CC1 [Compound 187, N-(methanesulfonyl)-4-(4-methoxypiperidin-1-yl)-1-[2-(morpholin-4-yl)pyridin-4-yl]-3-(propan-2-yl)-1H-pyrazolo[3,4-b]pyridine-6-carboxamide] | 308.87 | 69.3 | 160 | 223 | > 1000 | 180
2 | COC1CCN(c2cc(C(=O)NS(C)(=O)=O)nc3c2c(C(C)C)nn3-c2ccnc(N3CCCC3)c2)CC1 [Compound 188, N-(methanesulfonyl)-4-(4-methoxypiperidin-1-yl)-3-(propan-2-yl)-1-[2-(pyrrolidin-1-yl)pyridin-4-yl]-1H-pyrazolo[3,4-b]pyridine-6-carboxamide] | 405.37 | 160 | 214.93 | 274 | – | 257.3
3 | CS(=O)(=O)NC(=O)c1cc(N2CCC(S(C)(=O)=O)CC2)c2c(C3CCC3)nn(-c3ccccc3)c2n1 [Compound 190, 3-cyclobutyl-N-(methanesulfonyl)-4-[4-(methanesulfonyl)piperidin-1-yl]-1-phenyl-1H-pyrazolo[3,4-b]pyridine-6-carboxamide] | 502.4 | 1240 | 284.8 | 967 | 51 | 269
4 | COCC1CN(c2cc(C(=O)NS(C)(=O)=O)nc3c2c(C2CCC2)nn3-c2ccccc2)C1 [Compound 193, 3-cyclobutyl-N-(methanesulfonyl)-4-[3-(methoxymethyl)azetidin-1-yl]-1-phenyl-1H-pyrazolo[3,4-b]pyridine-6-carboxamide] | 341.37 | 589 | 175.23 | 1070 | – | 317.57
5 | CS(=O)(=O)NC(=O)c1cc(OCCC2CCOCC2)c2c(C3CCC3)nn(-c3ccccc3)c2n1 [Compound 198, 3-cyclobutyl-N-(methanesulfonyl)-4-[2-(oxan-4-yl)ethoxy]-1-phenyl-1H-pyrazolo[3,4-b]pyridine-6-carboxamide] | 321.57 | 466 | 135.73 | 633 | – | 477.39
6 | CS(=O)(=O)NC(=O)c1cc(OC[C@@H](F)C2CCOCC2)c2c(C3CCC3)nn(-c3ccccc3)c2n1 [Compound 199, 3-cyclobutyl-4-[(2S)-2-fluoro-2-(oxan-4-yl)ethoxy]-N-(methanesulfonyl)-1-phenyl-1H-pyrazolo[3,4-b]pyridine-6-carboxamide] | 304.63 | 316 | 142.6 | 481 | > 1000 | 627.48
7 | CS(=O)(=O)NC(=O)c1cc(OCC2CCOCC2)c2c(C3CCC3)nn(-c3ccccc3)c2n1 [Compound 200, 3-cyclobutyl-N-(methanesulfonyl)-4-[(oxan-4-yl)methoxy]-1-phenyl-1H-pyrazolo[3,4-b]pyridine-6-carboxamide] | 318.27 | 94.8 | 163.43 | 316 | – | 364.3
8 | CS(=O)(=O)NC(=O)c1cc(-c2ccc(N3CCC(C#N)CC3)nc2)c2c(C3CCC3)nn(-c3ccnc(N4CCOCC4)c3)c2n1 [Compound 201, 4-[6-(4-cyanopiperidin-1-yl)pyridin-3-yl]-3-cyclobutyl-N-(methanesulfonyl)-1-[2-(morpholin-4-yl)pyridin-4-yl]-1H-pyrazolo[3,4-b]pyridine-6-carboxamide] | 379.9 | 292 | 200.8 | 402 | < 300 | 250
9 | COC1CCN(c2cc(C(=O)NS(=O)(=O)C3CCOCC3)nc3c2c(C2CCC2)nn3-c2ccccc2)CC1 [Compound 207, 3-cyclobutyl-4-(4-methoxypiperidin-1-yl)-N-(oxane-4-sulfonyl)-1-phenyl-1H-pyrazolo[3,4-b]pyridine-6-carboxamide] | 284.87 | 175 | 141.93 | 340 | – | 441.31
10 | COC(=O)N1CCC2CN(c3cc(C(=O)NS(C)(=O)=O)nc4c3c(C3CCC3)nn4-c3ccccc3)CCC21 (stereo not drawn) [Compound 215, methyl 5-{3-cyclobutyl-6-[(methanesulfonyl)carbamoyl]-1-phenyl-1H-pyrazolo[3,4-b]pyridin-4-yl}octahydro-1H-pyrrolo[3,2-c]pyridine-1-carboxylate] | 569.35 | 47.9 | 374.57 | 274 | 45 | 320
11 | CN(C)C[C@@H](F)C1CCN(c2cc(C(=O)NS(C)(=O)=O)nc3c2c(C2CCC2)nn3-c2ccccc2)CC1 [Compound 219, 3-cyclobutyl-4-{4-[(1S)-2-(dimethylamino)-1-fluoroethyl]piperidin-1-yl}-N-(methanesulfonyl)-1-phenyl-1H-pyrazolo[3,4-b]pyridine-6-carboxamide] | 524.4 | 230 | 381.1 | 764 | – | 298.20
12 | COC(C)(C)C1CCN(c2cc(C(=O)NS(C)(=O)=O)nc3c2c(C(C)C)nn3-c2ccc(F)cc2)CC1 [Compound 221, 1-(4-fluorophenyl)-N-(methanesulfonyl)-4-[4-(2-methoxypropan-2-yl)piperidin-1-yl]-3-(propan-2-yl)-1H-pyrazolo[3,4-b]pyridine-6-carboxamide] | 492.2 | 77.2 | 322.15 | 420 | 40 | 245.9
13 | COCCS(=O)(=O)NC(=O)c1cc(-c2ccc(N3CCOCC3)cc2)c2c(OC(C)C)nn(-c3ccccc3)c2n1 [Compound 226, N-(2-methoxyethanesulfonyl)-4-[4-(morpholin-4-yl)phenyl]-1-phenyl-3-[(propan-2-yl)oxy]-1H-pyrazolo[3,4-b]pyridine-6-carboxamide] | 392.95 | 386 | 206.7 | 445 | 56 | 530
14 | CS(=O)(=O)NC(=O)c1cc(N2CCC(OC3CCCC3)CC2)c2c(C3CCC3)nn(-c3ccccc3)c2n1 [Compound 228, 3-cyclobutyl-4-[4-(cyclopentyloxy)piperidin-1-yl]-N-(methanesulfonyl)-1-phenyl-1H-pyrazolo[3,4-b]pyridine-6-carboxamide] | 395.1 | 335 | 217.9 | 490 | 32 | 240
15 | CS(=O)(=O)NC(=O)c1cc(N2CCC(OC3CCCCC3)CC2)c2c(C3CCC3)nn(-c3ccccc3)c2n1 [Compound 229, 3-cyclobutyl-4-[4-(cyclohexyloxy)piperidin-1-yl]-N-(methanesulfonyl)-1-phenyl-1H-pyrazolo[3,4-b]pyridine-6-carboxamide] | 418.65 | 366 | 174.2 | 414 | 20 | 430

Source: US10259810B2, “N-sulfonylated pyrazolo[3,4-b]pyridin-6-carboxamides and method of use” (AbbVie S.à.r.l., priority 2015, dated 2019)
